Reference: article PMC2806525, “Proteinase-activated receptor-2 mediated inhibition of TNFα-stimulated JNK activation — A novel paradigm for Gq/11 linked GPCRs” (Cellular Signalling, 2010)
“Also recorded” adds a separate entry of the source. Residues, ends and D or L forms follow the SMILES beside them.

Tests used:
PKC [1] = assay: TNFα-stimulated JNK activity, PKC activator / PKC inhibitor, PAR2 NCTC2544 cells; format: cell-based, human
Protocol: (§1) Human skin epithelial cells NCTC2544 were maintained in M199 medium with Earl's salt supplement, 10% (v/v) foetal calf serum, L-glutamine (27 µg/ml), penicillin (250 U/ml), and streptomycin (25 mg/ml). NCTC2544 cells stably expressing human PAR2 (clone G) were maintained in complete M199 medium containing 400 μg/ml of Geneticin for selection pressure and passaged using Versene (2% EDTA/PBS). EAhy-926 cells were produced by hybridizing human umbilical vein endothelial cells (HUVECs) with the epithelial cell line A549 [27] and maintained in Dulbecco's Modified Eagle's Medium (DMEM) supplemented with 10% foetal calf serum (FCS), hypoxanthine/aminopterin/thymidine (HAT supplement), penicillin (250 U/ml) and streptomycin (25 mg/ml), and cells were passaged using Versene.
To measure JNK activity, cells were stimulated as appropriate and the reaction terminated by rapid aspiration and the addition of ice-cold PBS. The cells were solubilised in 20 mM HEPES buffer, pH 7.7, containing 50 mM NaCl, 0.1 mM EDTA, 0.1 mM Na3VO4, 0.1 mM PMSF, 10 mg/ml aprotinin, 10 mg/ml leupeptin, and 1% (w/v) Triton X-100. Lysates were clarified by centrifugation for 5 min at 13,000 rpm and equal amounts of protein were incubated with 20 μg of GST-c-Jun-(5–89) immobilized on glutathione-Sepharose at 4 °C for 3 h. Beads were then washed three times in solubilisation buffer and twice in 25 mM HEPES buffer, pH 7.6, containing 20 mM β-glycerophosphate, 0.1 mM NaV3O4, and 2 mM dithiothreitol. Precipitates were then incubated with the same buffer containing 25 μM/0.5 μCi of ATP/[γ-^32P] ATP in a final volume of 30 µl at 30 °C for 30 min. The reactions were terminated by the addition of 4× SDS-sample buffer and aliquots of each sample subjected to electrophoresis on 11% SDS-polyacrylamide gel electrophoresis. Phosphorylation of GST-c-Jun was then determined by autoradiography.
Where experimental data is shown as a blot, this represents one of at least 3 experiments and data represents the mean ± s.e.m. Statistical analysis was by one-way ANOVA with Dunnett's post test (*P < 0.05, **P < 0.01).
Fig. 5 Pharmacological blockade of protein kinase C reverses PAR2 mediated inhibition of TNFα-stimulated JNK activation. PAR2 expressing NCTC2544 cells (clone G) were pre-incubated with increasing concentrations of GF109203X (GFX) for 30 min then incubated for a further 30 min with 100 nM PMA (Panel A) or 30 nM trypsin (Panel B) prior to stimulation for a further 30 min with TNFα(+) (10 ng/ml). Samples were assessed for JNK activity (Panels A and B) or phospho-JNK levels (Panel D) as outlined in the Methods section. Gels from JNK activity assays were quantified by densitometry (Panel C). Each value represents the mean ± s.e.m from at least 4 experiments. ⁎⁎P < 0.01 compared to TNFα and trypsin stimulated.

PKC [2] = assay: TNFα-stimulated JNK phosphorylation, PKC activator / PKC inhibitor, PAR2 NCTC2544 cells; format: cell-based, human; details: GF109203X 10 μM; trypsin or SLIGKV-OH; TNFα 10 ng/ml 30 min
Protocol: as §1
Proteins were separated by 10% SDS–PAGE and transferred onto nitrocellulose. The membranes were blocked for non-specific binding for 2 h in 2% BSA (w/v) diluted in NATT buffer (50 mM Tris–HCl, 150 mM NaCl, 0.2% (v/v) Tween-20). […]
Fig. 5 Pharmacological blockade of protein kinase C reverses PAR2 mediated inhibition of TNFα-stimulated JNK activation. […] Samples were assessed for JNK activity (Panels A and B) or phospho-JNK levels (Panel D) as outlined in the Methods section. Gels from JNK activity assays were quantified by densitometry (Panel C). […]

TNFR1/TRADD = TNFR1/TRADD complex formation (TNFR1 immuno-precipitation, TRADD immuno-blot), PAR2 expressing cells; format: cell-based, human; details: 100 nM YM254890 or 3 μM GF109203X 30 min, peptide 100 μM 30 min, TNFα 10 ng/ml 30 min
Protocol: as §1
Proteins were separated by 10% SDS–PAGE and transferred onto nitrocellulose. The membranes were blocked for non-specific binding for 2 h in 2% BSA (w/v) diluted in NATT buffer (50 mM Tris–HCl, 150 mM NaCl, 0.2% (v/v) Tween-20). The blots were then incubated overnight with 50 ng/ml primary antibody diluted in 0.2% BSA (w/v) in NATT buffer. The blots were washed with NATT buffer for 90 min and incubated with HRP-conjugated secondary antibody (20 ng/ml in 0.2% BSA (w/v) diluted in NATT buffer) for 2 h. After a further 90 min wash, the blots were subjected to ECL reagent and exposed to Kodak X-ray film.
For immuno-precipitation of TNFR1, equal amounts of pre-cleared cell lysates were incubated in Tris–HCl buffer, pH 7.4, containing 50 mM NaCl, 1 mM EDTA, 1 mM EGTA, 1% (w/v) Triton X-100, and 0.5% (w/v) Nonidet P-40, with 2 μg TNFR1 antibody, pre-coupled to protein G, for 3 h. Lysates were recovered by sequential washes in solubilisation buffer and in the same buffer lacking detergents. Precipitates were assessed for TRADD or RIP content using Western blotting.
Fig. 7 PAR2 mediated TNFR1 adapter protein disruption in PAR2 expressing cells. In Panel A, cells were pre-treated with peptide (100 μM) or vehicle prior to stimulation with TNFα (10 ng/ml) for 30 min. Lysates were immuno-precipitated for TNFR1 and immuno-blotted for TRADD and/or RIP, as outlined in the Methods section. In Panel B cells were pre-treated with 100 nM YM254890 or 3 μM GF109203X for 30 min prior to pre-treatment with peptide (100 μM), for 30 min, then incubated for a further 30 min with TNFα (10 ng/ml). TNFR1 immuno-precipitates were immuno-blotted for TRADD. Each gel is representative of at least three experiments.

PKC isoforms = details: cited from earlier work
Excerpt: We then examined the potential signalling pathways which could be mediating the inhibitory effects of PAR2. PAR2 is coupled to a number of signalling pathways via G-protein dependent and independent mechanisms. […] Therefore, we tested the effect of the PKC inhibitor GF109203X on PAR2 mediated inhibition of JNK activity and phosphorylation. ... || We then sought to investigate the possible mechanisms by which PAR2 mediated inhibition of JNK might occur. […] This is typical of a number of keratinocyte cell type ...

human PAR2 [3] = target: T1, human PAR2 (Homo sapiens, UniProt P55085); assay: TNFα-stimulated JNK activity (in vitro c-Jun phosphorylation), PAR2 agonist pre-incubation, PAR2 NCTC2544 cells (clone G); format: cell-based; details: 30 min pre-incubation, then TNFα 30 min, mean ± s.e.m, at least 4 experiments
T1 construct: expressed in transfected cells
T1 sequence (P55085 26-397): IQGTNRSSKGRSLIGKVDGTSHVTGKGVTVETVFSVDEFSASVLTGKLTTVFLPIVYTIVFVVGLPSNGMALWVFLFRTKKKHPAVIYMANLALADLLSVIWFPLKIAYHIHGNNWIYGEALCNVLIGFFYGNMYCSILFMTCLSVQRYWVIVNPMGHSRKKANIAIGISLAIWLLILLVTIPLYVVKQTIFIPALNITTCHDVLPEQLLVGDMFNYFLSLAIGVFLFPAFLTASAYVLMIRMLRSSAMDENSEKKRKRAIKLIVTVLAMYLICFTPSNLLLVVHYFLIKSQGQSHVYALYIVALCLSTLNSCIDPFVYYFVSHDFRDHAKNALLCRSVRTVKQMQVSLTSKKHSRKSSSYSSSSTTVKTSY
Protocol: as §1
To measure JNK activity, cells were stimulated as appropriate and the reaction terminated by rapid aspiration and the addition of ice-cold PBS. […] Phosphorylation of GST-c-Jun was then determined by autoradiography. […]
Fig. 1 PAR2 activation mediates inhibition of TNFα-stimulated JNK activity and phosphorylation in PAR2 NCTC2544 cells. […] Samples were assessed for JNK activity (Panel A) or phospho-JNK levels (Panel C) as outlined in the Methods section. Gels from JNK assays were quantified (Panel B). Each value represents the mean ± s.e.m from at least 4 experiments and data was quantified by densitometry. ⁎P < 0.05, ⁎⁎P < 0.01 compared to TNFα alone.
(§2) Fig. 4 Concentration response effects of PAR2 peptides for activation of JNK and inhibition of TNFα-stimulated JNK. PAR2 expressing NCTC2544 cells (clone G) were incubated with increasing concentrations of SLIGKV-OH or 2f-LIGKV-OH for 30 min and assayed for JNK activity (Panel B) or stimulated for a further 30 min with TNFα (+) before JNK activity was assessed (Panel A). Samples were assessed for JNK activity as outlined in the Methods section. Gels from JNK assays were quantified (Panel C). Each value represents the mean ± s.e.m from at least 4 experiments and data was quantified by densitometry.

human PAR2 [4] = target: T1, human PAR2; assay: JNK activity, agent alone, PAR2 NCTC2544 cells (clone G); format: cell-based; details: 30 min, no TNFα, mean ± s.e.m, at least 4 experiments
Protocol: as §1
To measure JNK activity, cells were stimulated as appropriate and the reaction terminated by rapid aspiration and the addition of ice-cold PBS. The cells were solubilised in 20 mM HEPES buffer, pH 7.7, containing 50 mM NaCl, 0.1 mM EDTA, 0.1 mM Na3VO4, 0.1 mM PMSF, 10 mg/ml aprotinin, 10 mg/ml leupeptin, and 1% (w/v) Triton X-100. Lysates were clarified by centrifugation for 5 min at 13,000 rpm and equal amounts of protein were incubated with 20 μg of GST-c-Jun-(5–89) immobilized on glutathione-Sepharose at 4 °C for 3 h. […] Phosphorylation of GST-c-Jun was then determined by autoradiography. […]
as §2

CN(C)CCCn1cc(C2=C(c3c[nH]c4ccccc34)C(=O)NC2=O)c2ccccc21 [GF109203X]
reversal of PAR2 mediated inhibition of JNK activity by PKC inhibitor (PKC [1]; GF109203X 10 μM (maximal concentration), trypsin 30 nM or SLIGKV-OH, TNFα 10 ng/ml 30 min): reversed the inhibitory effect of trypsin and SLIGKV-OH on TNFα-stimulated JNK activation
reversal of PAR2 mediated JNK inhibition by PKC inhibitor, general statement (PKC [1]; abstract / discussion): the effects of both agents were reversed; also recorded: good reversal of PAR2 mediated inhibition
reversal of PMA effect on TNFα-stimulated JNK activity (PKC [1]; micromolar concentrations GF109203X 30 min, 100 nM PMA 30 min, TNFα 10 ng/ml 30 min): reversed by micromolar concentrations
reversal of PAR2 mediated inhibition of JNK phosphorylation by PKC inhibitor (PKC [2]): reversed the inhibitory effect
reversal of PAR2 mediated disruption of TNFR1/TRADD complex (TNFR1/TRADD): effectively reversed PAR2 mediated disruption
PKC isoform inhibition (PKC isoforms; ref [40–42]): block both Ca^2+-dependent and some novel PKC isoforms

Cn1c2ccccc2c2c3c(c4c5ccccc5n(CCC#N)c4c21)CNC3=O [Go6976]
effect of classical PKC inhibitor on PAR2 mediated JNK inhibition (PKC [1]; not shown): without effect
PKC isoform preference (PKC isoforms; no reference given): preferentially inhibits the classical group of PKC isoforms

CC[C@H](C)[C@H](NC(=O)[C@H](CC(C)C)NC(=O)[C@@H](N)CO)C(=O)NCC(=O)N[C@@H](CCCCN)C(=O)N[C@H](C(=O)O)C(C)C [SLIGKV-OH] (H-SLIGKV-OH)
IC50 (human PAR2 [3]; densitometry, read-out: IC50, inhibition of TNFα-stimulated JNK activity): 6.24 ± 1.32 µM
% inhibition of TNFα-stimulated JNK activity (human PAR2 [3]; maximal efficacy comparison): 93.567 ± 6.882%
EC50 (human PAR2 [4]; densitometry, read-out: EC50, stimulation of JNK activity by peptide alone): 10.1 ± 3.3 µM
% stimulation of JNK activity alone (human PAR2 [4]; maximal efficacy comparison): 43.950 ± 6.482%
